Assay results taken from article PMC11659602, “Discovering covalent cyclic peptide inhibitors of peptidyl arginine deiminase 4 (PADI4) using mRNA-display with a genetically encoded electrophilic warhead” (Communications Chemistry, 2024).
Like-named read-outs stand apart in the source and are kept apart here. Where a SMILES comes first, the peptide text is derived from it. Bridges are numbered along the chain shown (N, C = ends). [ ]: non-standard residue; d: D form. Orn(fluoroacetimidoyl) = N=C(CF)NCCC[C@H](N)C(=O)O

Target: T1, PADI4 (Homo sapiens, UniProt Q9UM07)
T1 construct: His6; made in house
T1 sequence (Q9UM07 whole entry): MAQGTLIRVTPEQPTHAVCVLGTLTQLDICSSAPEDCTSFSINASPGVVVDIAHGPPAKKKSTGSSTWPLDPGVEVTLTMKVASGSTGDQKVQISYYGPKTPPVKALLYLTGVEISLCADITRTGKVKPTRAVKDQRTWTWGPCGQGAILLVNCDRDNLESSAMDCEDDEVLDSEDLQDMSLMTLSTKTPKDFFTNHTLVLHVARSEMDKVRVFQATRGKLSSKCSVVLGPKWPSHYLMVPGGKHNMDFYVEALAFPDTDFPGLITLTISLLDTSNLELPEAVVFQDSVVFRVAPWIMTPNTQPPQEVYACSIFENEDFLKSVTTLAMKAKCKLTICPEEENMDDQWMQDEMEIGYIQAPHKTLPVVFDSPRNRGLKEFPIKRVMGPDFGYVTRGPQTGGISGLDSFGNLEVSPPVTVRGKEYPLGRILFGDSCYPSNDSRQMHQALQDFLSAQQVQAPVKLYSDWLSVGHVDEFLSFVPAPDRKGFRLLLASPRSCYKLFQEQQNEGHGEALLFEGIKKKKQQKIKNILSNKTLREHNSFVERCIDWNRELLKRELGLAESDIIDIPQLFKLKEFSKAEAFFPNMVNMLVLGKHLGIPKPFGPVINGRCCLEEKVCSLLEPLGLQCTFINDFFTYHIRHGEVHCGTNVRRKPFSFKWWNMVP
Assay: COLDER inhibition assay, BAEE substrate, with or without 1 h preincubation
Format: biochemical
Settings: for IC50: COLDER; for remaining activity at 0.003 µM: peptide 0.003 µM; for remaining activity at 0.01 µM: peptide 0.01 µM; for remaining activity at 0.03 µM: peptide 0.03 µM; for remaining activity at 0.1 µM: peptide 0.1 µM; for remaining activity at 0.3 µM: peptide 0.3 µM; for remaining activity at 1 µM: peptide 1 µM; for remaining activity at 3 µM: peptide 3 µM
In short: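 50 nM His-PADI4 with peptide (final 0.1× the 0.03-500 µM series), 0.6 mg/mL BSA, 10 mM CaCl2 in 50 mM HEPES, 150 mM NaCl, 2 mM DTT, pH 7.5, with or without 1 h preincubation before 10 mM BAEE. After 30 min at rt, EDTA-quenched; citrulline read colorimetrically at 540 nm; mean ± SEM, ≥2 replicates.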

[1] = 1 h preincubation of peptide and PADI4, 10 mM CaCl2, read-out: IC50 Values 1 h preincubation
[2] = no preincubation of peptide and PADI4, 10 mM CaCl2, read-out: IC50 Values 0 h preincubation
[3] = T=0, values starred, read-out: PADI4 activity normalised to 0.1% DMSO
[4] = T=1, read-out: PADI4 activity normalised to 0.1% DMSO
[5] = T=0, read-out: PADI4 activity normalised to 0.1% DMSO

Compound `N=C(N)NCCC[C@@H]1NC(=O)[C@H](CCCNC(=N)CF)NC(=O)[C@H](CC(=O)O)NC(=O)[C@H](Cc2ccc(O)cc2)NC(=O)[C@H](CCCCN)NC(=O)[C@H](CO)NC(=O)[C@@H](Cc2ccc(O)cc2)NC(=O)CSC[C@@H](C(=O)NCC(N)=O)NC(=O)[C@H](CC(=O)O)NC(=O)[C@H](CCCNC(=N)N)NC(=O)[C@@H]2CCCN2C(=O)[C@H](CO)NC1=O` [cP4_4, ySKYD(2)RSPRDCG] ({CH2CO}-[dY]SKYD[Orn(fluoroacetimidoyl)]RSPRDCG-NH2; thioether N-12) has an IC50 [1] of 70 ± 4 nM, an IC50 [2] of 4400 ± 70 nM and a remaining activity at 0.003 µM [3] of 97.2%. The remaining activity at 0.003 µM [4] was 84.1%, the remaining activity at 0.01 µM [3] was 92.4% and the remaining activity at 0.01 µM [4] was 86.9%. It also gave a remaining activity at 0.03 µM [5] of 93.5%, a remaining activity at 0.03 µM [4] of 73.7% and a remaining activity at 0.1 µM [5] of 90.5%. It also gave a remaining activity at 0.1 µM [4] of 29.1%, a remaining activity at 0.3 µM [5] of 87.5% and a remaining activity at 1 µM [5] of 76.3%. It also gave a remaining activity at 3 µM [5] of 53.9%, a remaining activity at 10 µM (peptide 10 µM, T=0, read-out: PADI4 activity normalised to 0.1% DMSO) of 20.8% and a remaining activity at 30 µM (peptide 30 µM, T=0, read-out: PADI4 activity normalised to 0.1% DMSO) of 8.03%.

In the case of `CC(C)C[C@@H]1NC(=O)[C@H](CCCCN)NC(=O)[C@H](CO)NC(=O)[C@H](CO)NC(=O)[C@H](Cc2ccc(O)cc2)NC(=O)[C@H](Cc2c[nH]cn2)NC(=O)[C@H](CCCNC(=N)CF)NC(=O)[C@H](CC(=O)O)NC(=O)[C@H](CC(C)C)NC(=O)[C@@H](Cc2ccc(O)cc2)NC(=O)CSC[C@@H](C(=O)NCC(N)=O)NC(=O)[C@H](Cc2ccc(O)cc2)NC1=O` [cP4_15, yLD(2)HYSSKLYCG] ({CH2CO}-[dY]LD[Orn(fluoroacetimidoyl)]HYSSKLYCG-NH2; thioether N-12), the IC50 [1] is reported as 52 ± 2 nM, the IC50 [2] is reported as 1600 ± 30 nM and the remaining activity at 0.003 µM [3] is reported as 95.7%. For the same compound, the remaining activity at 0.003 µM [4] was 87.4%, the remaining activity at 0.01 µM [3] was 92.2% and the remaining activity at 0.01 µM [4] was 88.3%. For the same compound, the remaining activity at 0.03 µM [5] was 95.8%, the remaining activity at 0.03 µM [4] was 81.5% and the remaining activity at 0.1 µM [5] was 88.7%. The remaining activity at 0.3 µM [5] was 82.7%, the remaining activity at 1 µM [5] was 61.2% and the remaining activity at 3 µM [5] was 32.3%.
